Measurements from US20240158446A1, “CYCLIC COMPOUND HAVING SELECTIVE INHIBITORY ACTION ON KRAS OVER HRAS AND NRAS” (CHUGAI SEIYAKU KABUSHIKI KAISHA, priority 2021, published 2024).

Experiments:
[1] = molecular target: GDP-bound KRAS wild-type protein (Homo sapiens, UniProt P01116); experiment: Binding to KRAS by surface plasmon resonance (SPR), Single Cycle Kinetics; details: SPR, Single Cycle Kinetics, GDP-bound KRAS wild-type protein; read-out: KRAS KD
[2] = molecular target: GDP-bound HRAS wild-type protein (Homo sapiens, UniProt P01112); experiment: Binding to HRAS by surface plasmon resonance (SPR), Single Cycle Kinetics; details: ratio of KD for GDP-bound HRAS wild-type protein to KD for KRAS, SPR
[3] = tested on: human lung cancer strain NCI-H441; experiment: cells; details: NCI-H441, 96 h, read-out: NCI-H441 IC50 (nM), NCI-H441 cell proliferation, 4 days, CellTiter-Glo;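 further: cell proliferation inhibition after four days measured by CellTiter-Glo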
[4] = molecular target: GDP-bound NRAS wild-type protein (Homo sapiens, UniProt P01111); experiment: Binding to NRAS by surface plasmon resonance (SPR), Single Cycle Kinetics; details: ratio of KD for GDP-bound NRAS wild-type protein to KD for KRAS, SPR
Sequence of GDP-bound NRAS wild-type protein (P01111 whole entry): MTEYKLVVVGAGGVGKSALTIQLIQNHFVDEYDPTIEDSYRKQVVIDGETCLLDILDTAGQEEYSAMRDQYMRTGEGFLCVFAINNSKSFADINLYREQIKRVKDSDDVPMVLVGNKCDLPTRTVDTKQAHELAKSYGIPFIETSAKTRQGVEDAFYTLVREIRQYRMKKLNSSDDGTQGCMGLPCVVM

Sequence of GDP-bound HRAS wild-type protein (P01112 whole entry): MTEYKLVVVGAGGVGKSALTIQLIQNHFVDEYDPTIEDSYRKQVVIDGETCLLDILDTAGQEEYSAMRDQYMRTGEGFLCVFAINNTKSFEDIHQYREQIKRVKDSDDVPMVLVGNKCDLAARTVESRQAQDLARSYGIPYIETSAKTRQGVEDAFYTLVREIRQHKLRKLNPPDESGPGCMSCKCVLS
Sequence of GDP-bound KRAS wild-type protein (P01116 whole entry): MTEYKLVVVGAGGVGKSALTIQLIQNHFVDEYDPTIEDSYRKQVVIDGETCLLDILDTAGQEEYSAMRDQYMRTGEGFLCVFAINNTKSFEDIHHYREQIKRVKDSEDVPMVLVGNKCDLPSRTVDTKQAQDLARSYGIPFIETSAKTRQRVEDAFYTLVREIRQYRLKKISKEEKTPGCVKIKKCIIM

Row | SMILES | Kd [1] [nM] | IC50 [3] [nM] | HRAS/KRAS (KD ratio) [2] | NRAS/KRAS (KD ratio) [4]
1 | CCO[C@@H]1C[C@H]2C(=O)NC3(CC(C)(C)C3)C(=O)N(C)[C@@H](C3CCCC3)C(=O)N3CCC[C@@H]3CC(=O)N(C)[C@@H](CC)C(=O)N[C@@H]([C@@H](C)CC)C(=O)N(C)CC(=O)N(C)[C@H]3C/C=C\CCN(C3=O)[C@@H](CC3CCCCC3)C(=O)N(C)CC(=O)N[C@@H](CCc3cc(F)c(C(F)(F)F)c(F)c3)C(=O)N2C1 [PP1620] | 6.4 | 170 | B (a compound having 3 or more and less than 10 is denoted as B) | B (a compound having 3 or more and less than 10 is denoted as B)
2 | CCO[C@@H]1C[C@H]2C(=O)NC3(CC(C)(C)C3)C(=O)N(C)[C@@H](C3CCCC3)C(=O)N(C)[C@H](CC)CC(=O)N(C)[C@@H](CC)C(=O)N[C@@H]([C@@H](C)CC)C(=O)N(C)CC(=O)N(C)[C@H]3C/C=C\CCN(C3=O)[C@@H](Cc3ccc(C(F)(F)F)cc3)C(=O)N(C)CC(=O)N[C@@H](CCc3cc(F)c(C(F)(F)F)c(F)c3)C(=O)N2C1 [PP1623] | 0.19 | 4.5 | A (a compound having 10 or more and less than 20 is denoted as A) | A (a compound having 10 or more and less than 20 is denoted as A)
3 | CCO[C@@H]1C[C@H]2C(=O)NC3(CC(F)(F)C3)C(=O)N(C)[C@@H](C3CCCC3)C(=O)N(C)[C@H](CC)CC(=O)N(C)[C@@H](CC)C(=O)N[C@@H]([C@@H](C)CC)C(=O)N(C)CC(=O)N(C)[C@H]3C/C=C\CCN(C3=O)[C@@H](Cc3ccc(C(F)(F)F)cc3)C(=O)N(C)CC(=O)N[C@@H](CCc3cc(F)c(C(F)(F)F)c(F)c3)C(=O)N2C1 [PP1627] | 0.25 | 22.9 | A (a compound having 10 or more and less than 20 is denoted as A) | A (a compound having 10 or more and less than 20 is denoted as A)
4 | CCO[C@@H]1C[C@H]2C(=O)NC3(CC(C)(C)C3)C(=O)N(C)[C@@H](C3CCCC3)C(=O)N(C)[C@H](C3CCC3)CC(=O)N(C)[C@@H](CC3CC3)C(=O)N[C@@H]([C@@H](C)CC)C(=O)N(C)CC(=O)N(C)[C@H]3C/C=C\CCN(C3=O)[C@@H](Cc3ccc(C(F)(F)F)cc3)C(=O)N(C)CC(=O)N[C@@H](CCc3cc(F)c(C(F)(F)F)c(F)c3)C(=O)N2C1 [PP1635] | 0.64 | 36.3 | A (a compound having 10 or more and less than 20 is denoted as A) | B (a compound having 3 or more and less than 10 is denoted as B)
5 | CCO[C@@H]1C[C@H]2C(=O)NC3(CCC3)C(=O)N(C)[C@@H](C3CCCC3)C(=O)N(C)[C@H](C3CCC3)CC(=O)N(C)[C@@H](CC3CC3)C(=O)N[C@@H]([C@@H](C)CC)C(=O)N(C)CC(=O)N(C)[C@H]3C/C=C\CCN(C3=O)[C@@H](Cc3ccc(C(F)(F)F)cc3)C(=O)N(C)CC(=O)N[C@@H](CCc3cc(F)c(C(F)(F)F)c(F)c3)C(=O)N2C1 [PP1637] | 0.32 | 32.5 | A (a compound having 10 or more and less than 20 is denoted as A) | A (a compound having 10 or more and less than 20 is denoted as A)
6 | CCO[C@@H]1C[C@H]2C(=O)NC3(CC(F)(F)C3)C(=O)N(C)[C@@H](C3CCCC3)C(=O)N(C)[C@H](C3CCC3)CC(=O)N(C)[C@@H](CC3CC3)C(=O)N[C@@H]([C@@H](C)CC)C(=O)N(C)CC(=O)N(C)[C@H]3C/C=C\CCN(C3=O)[C@@H](Cc3ccc(C(F)(F)F)cc3)C(=O)N(C)CC(=O)N[C@@H](CCc3cc(F)c(C(F)(F)F)c(F)c3)C(=O)N2C1 [PP1639] | 0.68 | 44.8 | A (a compound having 10 or more and less than 20 is denoted as A) | A (a compound having 10 or more and less than 20 is denoted as A)

Now from value to compound, other results behind:

Row | Kd [1] [nM] | IC50 [3] [nM] | SMILES | HRAS/KRAS (KD ratio) [2] | NRAS/KRAS (KD ratio) [4]
7 | 1.1 | 55.8 | CCO[C@@H]1C[C@H]2C(=O)NC3(CCC3)C(=O)N(C)[C@@H](C(CC)CC)C(=O)N(C)[C@H](CC)CC(=O)N(C)[C@@H](CC)C(=O)N[C@@H]([C@@H](C)CC)C(=O)N(C)CC(=O)N(C)[C@H]3C/C=C\CCN(C3=O)[C@@H](Cc3ccc(C(F)(F)F)cc3)C(=O)N(C)CC(=O)N[C@@H](CCc3cc(F)c(C(F)(F)F)c(F)c3)C(=O)N2C1 [PP1624] | A (a compound having 10 or more and less than 20 is denoted as A) | A (a compound having 10 or more and less than 20 is denoted as A)
8 | 0.29 | 20.2 | CCO[C@@H]1C[C@H]2C(=O)NC3(CCC3)C(=O)N(C)[C@@H](C3CCCC3)C(=O)N(C)[C@H](CC)CC(=O)N(C)[C@@H](CC)C(=O)N[C@@H]([C@@H](C)CC)C(=O)N(C)CC(=O)N(C)[C@H]3C/C=C\CCN(C3=O)[C@@H](Cc3ccc(C(F)(F)F)cc3)C(=O)N(C)CC(=O)N[C@@H](CCc3cc(F)c(C(F)(F)F)c(F)c3)C(=O)N2C1 [PP1625] | B (a compound having 3 or more and less than 10 is denoted as B) | B (a compound having 3 or more and less than 10 is denoted as B)
9 | 3 | 108 | CCO[C@@H]1C[C@H]2C(=O)NC3(CC(F)(F)C3)C(=O)N(C)[C@@H](C(CC)CC)C(=O)N(C)[C@H](CC)CC(=O)N(C)[C@@H](CC)C(=O)N[C@@H]([C@@H](C)CC)C(=O)N(C)CC(=O)N(C)[C@H]3C/C=C\CCN(C3=O)[C@@H](Cc3ccc(C(F)(F)F)cc3)C(=O)N(C)CC(=O)N[C@@H](CCc3cc(F)c(C(F)(F)F)c(F)c3)C(=O)N2C1 [PP1626] | A (a compound having 10 or more and less than 20 is denoted as A) | A (a compound having 10 or more and less than 20 is denoted as A)
10 | 2.5 | 150 | CCO[C@@H]1C[C@H]2C(=O)NC3(CC(C)(C)C3)C(=O)N(C)[C@@H](C(CC)CC)C(=O)N(C)[C@H](CC)CC(=O)N(C)[C@@H](CC3CC3)C(=O)N[C@@H]([C@@H](C)CC)C(=O)N(C)CC(=O)N(C)[C@H]3C/C=C\CCN(C3=O)[C@@H](Cc3ccc(C(F)(F)F)cc3)C(=O)N(C)CC(=O)N[C@@H](CCc3cc(F)c(C(F)(F)F)c(F)c3)C(=O)N2C1 [PP1628] | A (a compound having 10 or more and less than 20 is denoted as A) | A (a compound having 10 or more and less than 20 is denoted as A)
11 | 0.36 | 20.7 | CCO[C@@H]1C[C@H]2C(=O)NC3(CC(C)(C)C3)C(=O)N(C)[C@@H](C3CCCC3)C(=O)N(C)[C@H](CC)CC(=O)N(C)[C@@H](CC3CC3)C(=O)N[C@@H]([C@@H](C)CC)C(=O)N(C)CC(=O)N(C)[C@H]3C/C=C\CCN(C3=O)[C@@H](Cc3ccc(C(F)(F)F)cc3)C(=O)N(C)CC(=O)N[C@@H](CCc3cc(F)c(C(F)(F)F)c(F)c3)C(=O)N2C1 [PP1629] | B (a compound having 3 or more and less than 10 is denoted as B) | B (a compound having 3 or more and less than 10 is denoted as B)
12 | 1.8 | 144 | CCO[C@@H]1C[C@H]2C(=O)NC3(CCC3)C(=O)N(C)[C@@H](C(CC)CC)C(=O)N(C)[C@H](CC)CC(=O)N(C)[C@@H](CC3CC3)C(=O)N[C@@H]([C@@H](C)CC)C(=O)N(C)CC(=O)N(C)[C@H]3C/C=C\CCN(C3=O)[C@@H](Cc3ccc(C(F)(F)F)cc3)C(=O)N(C)CC(=O)N[C@@H](CCc3cc(F)c(C(F)(F)F)c(F)c3)C(=O)N2C1 [PP1630] | A (a compound having 10 or more and less than 20 is denoted as A) | A (a compound having 10 or more and less than 20 is denoted as A)
13 | 3.7 | 116 | CCO[C@@H]1C[C@H]2C(=O)NC3(CC(F)(F)C3)C(=O)N(C)[C@@H](C(CC)CC)C(=O)N(C)[C@H](CC)CC(=O)N(C)[C@@H](CC3CC3)C(=O)N[C@@H]([C@@H](C)CC)C(=O)N(C)CC(=O)N(C)[C@H]3C/C=C\CCN(C3=O)[C@@H](Cc3ccc(C(F)(F)F)cc3)C(=O)N(C)CC(=O)N[C@@H](CCc3cc(F)c(C(F)(F)F)c(F)c3)C(=O)N2C1 [PP1632] | A (a compound having 10 or more and less than 20 is denoted as A) | A (a compound having 10 or more and less than 20 is denoted as A)
14 | 0.6 | 15.1 | CCO[C@@H]1C[C@H]2C(=O)NC3(CC(F)(F)C3)C(=O)N(C)[C@@H](C3CCCC3)C(=O)N(C)[C@H](CC)CC(=O)N(C)[C@@H](CC3CC3)C(=O)N[C@@H]([C@@H](C)CC)C(=O)N(C)CC(=O)N(C)[C@H]3C/C=C\CCN(C3=O)[C@@H](Cc3ccc(C(F)(F)F)cc3)C(=O)N(C)CC(=O)N[C@@H](CCc3cc(F)c(C(F)(F)F)c(F)c3)C(=O)N2C1 [PP1633] | B (a compound having 3 or more and less than 10 is denoted as B) | A (a compound having 10 or more and less than 20 is denoted as A)
15 | 5.1 | 144 | CCO[C@@H]1C[C@H]2C(=O)NC3(CC(C)(C)C3)C(=O)N(C)[C@@H](C(CC)CC)C(=O)N(C)[C@H](C3CCC3)CC(=O)N(C)[C@@H](CC3CC3)C(=O)N[C@@H]([C@@H](C)CC)C(=O)N(C)CC(=O)N(C)[C@H]3C/C=C\CCN(C3=O)[C@@H](Cc3ccc(C(F)(F)F)cc3)C(=O)N(C)CC(=O)N[C@@H](CCc3cc(F)c(C(F)(F)F)c(F)c3)C(=O)N2C1 [PP1634] | A (a compound having 10 or more and less than 20 is denoted as A) | A (a compound having 10 or more and less than 20 is denoted as A)
